Measurements reported in publication PMC6979384, “Characterization of the plant homeodomain (PHD) reader family for their histone tail interactions” (Epigenetics & Chromatin, 2020).

Experiments:
Test in all cases: Histone peptide microarray
Format in all cases: binding, human
ING4 = details: GST-tagged ING4; for Array Heatmap signal (histone peptide microarray): sheet Array Heatmap, each array performed twice, total n = 4
Outline: (§1)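 Steps: express and purify GST-tagged PHD reader; incubate 0.5 μM protein on a peptide microarray (293 histone peptides, single or combined PTMs) following an optimized protocol; average signal across 4 replicates.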

MORC3 (CW) = details: GST-tagged MORC3 (CW = CW-type Zn-finger); for Array Heatmap signal (histone peptide microarray): sheet Array Heatmap, each array performed twice, total n = 4
Outline: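 Readout is array binding signal, reported as the mean and standard deviation over four replicates. Each purified GST-fused PHD domain was incubated at 0.5 μM with a library of 293 modified histone peptides.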

PHF21A = details: GST-tagged PHF21A; for Array Heatmap signal (histone peptide microarray): sheet Array Heatmap, each array performed twice, total n = 4
Outline: as §1

RAG2 = details: GST-tagged RAG2; for Array Heatmap signal (histone peptide microarray): sheet Array Heatmap, each array performed twice, total n = 4
Outline: as §1

PHF23 = details: GST-tagged PHF23; for Array Heatmap signal (histone peptide microarray): sheet Array Heatmap, each array performed twice, total n = 4
Outline: as §1

ING1 = details: GST-tagged ING1; for Array Heatmap signal (histone peptide microarray): sheet Array Heatmap, each array performed twice, total n = 4
Outline: as §1

ING5 = details: GST-tagged ING5; for Array Heatmap signal (histone peptide microarray): sheet Array Heatmap, each array performed twice, total n = 4
Outline: as §1

DIDO1 = details: GST-tagged DIDO1; for Array Heatmap signal (histone peptide microarray): sheet Array Heatmap, each array performed twice, total n = 4
Outline: as §1

KDM5B (3) = details: GST-tagged KDM5B (3); for Array Heatmap signal (histone peptide microarray): sheet Array Heatmap, each array performed twice, total n = 4
Outline: as §1

PHF2 = details: GST-tagged PHF2; for Array Heatmap signal (histone peptide microarray): sheet Array Heatmap, each array performed twice, total n = 4
Outline: as §1

TAF3 = details: GST-tagged TAF3; for Array Heatmap signal (histone peptide microarray): sheet Array Heatmap, each array performed twice, total n = 4
Outline: as §1

TRIM66 (PB) = details: GST-tagged TRIM66 (PB = PHD + Bromodomain); for Array Heatmap signal (histone peptide microarray): sheet Array Heatmap, each array performed twice, total n = 4
Outline: as §1

AIRE (PP) = details: GST-tagged AIRE (PP); for Array Heatmap signal (histone peptide microarray): sheet Array Heatmap, each array performed twice, total n = 4
Outline: as §1

CHD5 (PPCC) = details: GST-tagged CHD5 (PPCC = Dual PHD + Dual Chromodomain); for Array Heatmap signal (histone peptide microarray): sheet Array Heatmap, each array performed twice, total n = 4
Outline: as §1

KDM5B (1) = details: GST-tagged KDM5B (1); for Array Heatmap signal (histone peptide microarray): sheet Array Heatmap, each array performed twice, total n = 4
Outline: as §1

BAZ2B = details: GST-tagged BAZ2B; for Array Heatmap signal (histone peptide microarray): sheet Array Heatmap, each array performed twice, total n = 4
Outline: as §1

ING3 = details: GST-tagged ING3; for Array Heatmap signal (histone peptide microarray): sheet Array Heatmap, each array performed twice, total n = 4
Outline: as §1

DPF2 (PPC2W2) = details: GST-tagged DPF2 (PPC2W2 = Dual PHD + C2W2-type Zn-finger); for Array Heatmap signal (histone peptide microarray): sheet Array Heatmap, each array performed twice, total n = 4
Outline: as §1

PHRF1 (RP) = details: GST-tagged PHRF1 (RP); for Array Heatmap signal (histone peptide microarray): sheet Array Heatmap, each array performed twice, total n = 4
Outline: as §1

SP140L = details: GST-tagged SP140L; for Array Heatmap signal (histone peptide microarray): sheet Array Heatmap, each array performed twice, total n = 4
Outline: as §1

KDM7A = details: GST-tagged KDM7A; for Array Heatmap signal (histone peptide microarray): sheet Array Heatmap, each array performed twice, total n = 4
Outline: as §1

MLL5 = details: GST-tagged MLL5; for Array Heatmap signal (histone peptide microarray): sheet Array Heatmap, each array performed twice, total n = 4
Outline: as §1

PHF13 = details: GST-tagged PHF13; for Array Heatmap signal (histone peptide microarray): sheet Array Heatmap, each array performed twice, total n = 4
Outline: as §1

PHF8 = details: GST-tagged PHF8; for Array Heatmap signal (histone peptide microarray): sheet Array Heatmap, each array performed twice, total n = 4
Outline: as §1

CHD4 (PPCC) = details: GST-tagged CHD4 (PPCC = Dual PHD + Dual Chromodomain); for Array Heatmap signal (histone peptide microarray): sheet Array Heatmap, each array performed twice, total n = 4
Outline: as §1

KDM5A (1) = details: GST-tagged KDM5A (1); for Array Heatmap signal (histone peptide microarray): sheet Array Heatmap, each array performed twice, total n = 4
Outline: as §1

BPTF (PB) = details: GST-tagged BPTF (PB = PHD + Bromodomain); for Array Heatmap signal (histone peptide microarray): sheet Array Heatmap, each array performed twice, total n = 4
Outline: as §1

ING2 = details: GST-tagged ING2; for Array Heatmap signal (histone peptide microarray): sheet Array Heatmap, each array performed twice, total n = 4
Outline: as §1

CHD5 (PCC) = details: GST-tagged CHD5 (PCC = PHD + Dual Chromodomain); for Array Heatmap signal (histone peptide microarray): sheet Array Heatmap, each array performed twice, total n = 4
Outline: as §1

KDM5A (3) = details: GST-tagged KDM5A (3); for Array Heatmap signal (histone peptide microarray): sheet Array Heatmap, each array performed twice, total n = 4
Outline: as §1

KDM4C (TTP) = details: GST-tagged KDM4C (TTP = Tandem Tudor domain + PHD); for Array Heatmap signal (histone peptide microarray): sheet Array Heatmap, each array performed twice, total n = 4
Outline: as §1

[1] = histone peptide array, arrays performed twice, n of 4

H3K4me3 + K14ac: H3 1-20
Array Heatmap signal (histone peptide microarray) (ING4): 0.6504
Array Heatmap signal (histone peptide microarray) (MORC3 (CW)): 0.8691
Array Heatmap signal (histone peptide microarray) (PHF21A): 0.4155
Array Heatmap signal (histone peptide microarray) (RAG2): 0.9484
Array Heatmap signal (histone peptide microarray) (PHF23): 0.8632
Array Heatmap signal (histone peptide microarray) (ING1): 0.9202
Array Heatmap signal (histone peptide microarray) (ING5): 0.4275
Array Heatmap signal (histone peptide microarray) (DIDO1): 1
Array Heatmap signal (histone peptide microarray) (KDM5B (3)): 0.7921
Array Heatmap signal (histone peptide microarray) (PHF2): 0.9532
Array Heatmap signal (histone peptide microarray) (TAF3): 0.7363
Array Heatmap signal (histone peptide microarray) (TRIM66 (PB)): 0.6346
Array Heatmap signal (histone peptide microarray) (AIRE (PP)): 0.3995
Array Heatmap signal (histone peptide microarray) (CHD5 (PPCC)): 0.5519
Array Heatmap signal (histone peptide microarray) (KDM5B (1)): 0.7346
Array Heatmap signal (histone peptide microarray) (BAZ2B): 0.6127
Array Heatmap signal (histone peptide microarray) (ING3): 0.9261
Array Heatmap signal (histone peptide microarray) (DPF2 (PPC2W2)): 0.7495
Array Heatmap signal (histone peptide microarray) (PHRF1 (RP)): 0.6002
Array Heatmap signal (histone peptide microarray) (SP140L): 0.3446
Array Heatmap signal (histone peptide microarray) (KDM7A): 0.4569
Array Heatmap signal (histone peptide microarray) (MLL5): 0.8336
Array Heatmap signal (histone peptide microarray) (PHF13): 0.8156
Array Heatmap signal (histone peptide microarray) (PHF8): 0.6468
Array Heatmap signal (histone peptide microarray) (CHD4 (PPCC)): 0.6173
Array Heatmap signal (histone peptide microarray) (KDM5A (1)): 0.4609
Array Heatmap signal (histone peptide microarray) (BPTF (PB)): 0.8401
Array Heatmap signal (histone peptide microarray) (ING2): 0.9757
Array Heatmap signal (histone peptide microarray) (CHD5 (PCC)): 0.7404
Array Heatmap signal (histone peptide microarray) (KDM5A (3)): 0.8892
Array Heatmap signal (histone peptide microarray) (KDM4C (TTP)): 0.599

H3K4me3 + K18ac: H3 1-20
Array Heatmap signal (histone peptide microarray) (ING4): 0.674
Array Heatmap signal (histone peptide microarray) (MORC3 (CW)): 0.8723
Array Heatmap signal (histone peptide microarray) (PHF21A): 0.4388
Array Heatmap signal (histone peptide microarray) (RAG2): 0.6973
Array Heatmap signal (histone peptide microarray) (PHF23): 1
Array Heatmap signal (histone peptide microarray) (ING1): 1
Array Heatmap signal (histone peptide microarray) (ING5): 0.4874
Array Heatmap signal (histone peptide microarray) (DIDO1): 0.9924
Array Heatmap signal (histone peptide microarray) (KDM5B (3)): 0.8599
Array Heatmap signal (histone peptide microarray) (PHF2): 1
Array Heatmap signal (histone peptide microarray) (TAF3): 0.7205
Array Heatmap signal (histone peptide microarray) (TRIM66 (PB)): 0.639
Array Heatmap signal (histone peptide microarray) (AIRE (PP)): 0.4183
Array Heatmap signal (histone peptide microarray) (CHD5 (PPCC)): 0.5532
Array Heatmap signal (histone peptide microarray) (KDM5B (1)): 0.7261
Array Heatmap signal (histone peptide microarray) (BAZ2B): 0.4486
Array Heatmap signal (histone peptide microarray) (ING3): 0.7492
Array Heatmap signal (histone peptide microarray) (DPF2 (PPC2W2)): 0.7175
Array Heatmap signal (histone peptide microarray) (PHRF1 (RP)): 0.7444
Array Heatmap signal (histone peptide microarray) (SP140L): 0.3614
Array Heatmap signal (histone peptide microarray) (KDM7A): 0.4973
Array Heatmap signal (histone peptide microarray) (MLL5): 0.8685
Array Heatmap signal (histone peptide microarray) (PHF13): 0.813
Array Heatmap signal (histone peptide microarray) (PHF8): 0.6791
Array Heatmap signal (histone peptide microarray) (CHD4 (PPCC)): 0.6241
Array Heatmap signal (histone peptide microarray) (KDM5A (1)): 0.4457
Array Heatmap signal (histone peptide microarray) (BPTF (PB)): 0.7125
Array Heatmap signal (histone peptide microarray) (ING2): 0.9902
Array Heatmap signal (histone peptide microarray) (CHD5 (PCC)): 0.8106
Array Heatmap signal (histone peptide microarray) (KDM5A (3)): 0.9747
Array Heatmap signal (histone peptide microarray) (KDM4C (TTP)): 0.6519

H3K4me3 + R8me2s + K9me3: H3 1-20
Array Heatmap signal, ING4 (ING4; [1]): 0.4627
Array Heatmap signal, MORC3 (CW) (MORC3 (CW); [1]): 0.5559
Array Heatmap signal, PHF21A (PHF21A; [1]): 0.4267
Array Heatmap signal, RAG2 (RAG2; [1]): 0.4516
Array Heatmap signal, PHF23 (PHF23; [1]): 0.6635
Array Heatmap signal, ING1 (ING1; [1]): 0.7489
Array Heatmap signal, ING5 (ING5; [1]): 0.3819
Array Heatmap signal, DIDO1 (DIDO1; [1]): 0.802
Array Heatmap signal, KDM5B (3) (KDM5B (3); [1]): 0.5614
Array Heatmap signal, PHF2 (PHF2; [1]): 0.8739
Array Heatmap signal, TAF3 (TAF3; [1]): 0.3814
Array Heatmap signal, TRIM66 (PB) (TRIM66 (PB); [1]): 0.6066
Array Heatmap signal, AIRE (PP) (AIRE (PP); [1]): 0.378
Array Heatmap signal, CHD5 (PPCC) (CHD5 (PPCC); [1]): 0.5185
Array Heatmap signal, KDM5B (1) (KDM5B (1); [1]): 0.5808
Array Heatmap signal, BAZ2B (BAZ2B; [1]): 0.4293
Array Heatmap signal, ING3 (ING3; [1]): 0.5388
Array Heatmap signal, DPF2 (PPC2W2) (DPF2 (PPC2W2); [1]): 0.6565
Array Heatmap signal, PHRF1 (RP) (PHRF1 (RP); [1]): 0.4616
Array Heatmap signal, SP140L (SP140L; [1]): 0.3193
Array Heatmap signal, KDM7A (KDM7A; [1]): 0.3751
Array Heatmap signal, MLL5 (MLL5; [1]): 0.7037
Array Heatmap signal, PHF13 (PHF13; [1]): 0.633
Array Heatmap signal, PHF8 (PHF8; [1]): 0.5138
Array Heatmap signal, CHD4 (PPCC) (CHD4 (PPCC); [1]): 0.5208
Array Heatmap signal, KDM5A (1) (KDM5A (1); [1]): 0.429
Array Heatmap signal, BPTF (PB) (BPTF (PB); [1]): 0.3866
Array Heatmap signal, ING2 (ING2; [1]): 0.784
Array Heatmap signal, CHD5 (PCC) (CHD5 (PCC); [1]): 0.7143
Array Heatmap signal, KDM5A (3) (KDM5A (3); [1]): 0.7166
Array Heatmap signal, KDM4C (TTP) (KDM4C (TTP); [1]): 0.4847
